The test system of one experiment is Pyricularia oryzae. Format: in vivo. Particulars: application rate 250 ppm; rice seedlings (Tai Nong 67) sprayed 24 h before infection; 6 days; untreated plants 70% attack.
Another experiment relates to Fusarium culmorum. The experiment can be described thus: Activity against Fusarium culmorum on wheat seedlings. It is filed as in vivo. Particulars: application rate 500 ppm; wheat seedlings (Kanzler) sprayed one day before infection; 6 days; untreated plants 60% attack. As to the method: On the following day, the plants were infected with a spore suspension of Fusarium culmorum. The plants treated in this way were incubated for 6 days at 22-24° C. and a relative atmospheric humidity of >90%. Assessment was carried out visually.

The next experiment has as its system Botrytis cinerea. The following applies: application rate 500 ppm; paprika seedlings (Neusiedler Ideal Elite) sprayed before infection; 5 days; untreated plants 80% attack.

The structures appear in SMILES notation.

In the case of `COC(=O)N(OC)c1ccccc1COc1ncn(-c2ccccc2)n1` [Compound 2], the “attack (visual assessment)” value in the experiment with Pyricularia oryzae worked out at 3%; in the experiment on Fusarium culmorum, 5%; in the experiment on Botrytis cinerea, 5%.

For the origin of these results see patent US6514998B1 (priority 1994, dated 2003).
